Test results reported in patent US6525001B1, “Substituted pyrimidine and pyridine herbicides” (Mid-American Commercialization Corporation, priority 1997, dated 2003).

Experiments:
Test in all cases: Test B pre-/postemergence
Format in all cases: in vivo
Set-up in all cases: key: 0 is no effect; 10 is complete control
[1] = tested on: bedstraw (Galium aparine)
Method in brief: (§1)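 Compounds in a surfactant-containing, non-phytotoxic solvent blend are applied to freshly planted seed (preemergence) and, concurrently, to seedlings of 2 to 18 cm at 1–4 leaves (postemergence). Plants stay in the greenhouse twelve to sixteen days and are then scored visually from 0 (no effect) to 10 (complete control).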

[2] = tested on: blackgrass (Alopecurus myosuroides)
Method in brief: as §1

[3] = tested on: broadleaf signalgrass (Brachiaria decumbens)
Method in brief: as §1

[4] = tested on: cocklebur (Xanthium strumarium)
Method in brief: as §1

[5] = tested on: corn (Zea mays)
Method in brief: as §1

[6] = tested on: crabgrass (Digitaria sanguinalis)
Method in brief: as §1

[7] = tested on: giant foxtail (Setaria faberii)
Method in brief: as §1

[8] = tested on: momingglory (Ipomoea hederacea)
Method in brief: as §1

[9] = tested on: pigweed (Amaranthus retroflexus)
Method in brief: as §1

[10] = tested on: purple nutsedge (Cyperus rotundus)
Method in brief: as §1

[11] = tested on: sugar beet (Beta vulgaris)
Method in brief: as §1

[12] = tested on: velvetleaf (Abutilon theophrasti)
Method in brief: as §1

[13] = tested on: wheat (Triticum aestivum)
Method in brief: as §1

[14] = tested on: wild oat (Avena fatua)
Method in brief: as §1

[15] = Preemergence, Rate 62 g/ha, scale of 0 to 10

Cc1cnc(-c2ccc(C(F)(F)F)cc2)nc1C(=O)c1cccc(C(F)(F)F)c1 [Compound 73]
Plant response rating, Bedstraw [1, 15]: 2 | Bedstraw plant response rating ([1]; Rate 62 g/ha, Postemergence): 9 | Bedstraw plant response rating ([1]; Rate 125 g/ha, Postemergence): 9 | Plant response rating, Bedstraw ([1]; Rate 125 g/ha, Preemergence): 8 | Plant response rating, Bedstraw ([1]; Rate 250 g/ha, Postemergence): 9 | Plant response rating, Bedstraw ([1]; Rate 250 g/ha, Preemergence): 9 | Plant response rating, Bedstraw ([1]; Rate 500 g/ha, Postemergence): 9 | Plant response rating, Bedstraw ([1]; Rate 500 g/ha, Preemergence): 10 | Plant response rating, Blackgrass [2, 15]: 8 | Blackgrass plant response rating ([2]; Rate 62 g/ha, Postemergence): 7 | Blackgrass plant response rating ([2]; Rate 125 g/ha, Postemergence): 7 | Plant response rating, Blackgrass ([2]; Rate 125 g/ha, Preemergence): 9 | Plant response rating, Blackgrass ([2]; Rate 250 g/ha, Postemergence): 9 | Plant response rating, Blackgrass ([2]; Rate 250 g/ha, Preemergence): 10 | Plant response rating, Blackgrass ([2]; Rate 500 g/ha, Postemergence): 9 | Plant response rating, Blackgrass ([2]; Rate 500 g/ha, Preemergence): 10 | B. signalgrass plant response rating ([3]; Rate 62 g/ha, Postemergence): 8 | B. signalgrass plant response rating ([3]; Rate 62 g/ha, Preemergence): 9 | B. signalgrass plant response rating ([3]; Rate 125 g/ha, Postemergence): 9 | Plant response rating, B. signalgrass ([3]; Rate 125 g/ha, Preemergence): 9 | Plant response rating, B. signalgrass ([3]; Rate 250 g/ha, Postemergence): 9 | Plant response rating, B. signalgrass ([3]; Rate 250 g/ha, Preemergence): 9 | Plant response rating, B. signalgrass ([3]; Rate 500 g/ha, Postemergence): 8 | Plant response rating, B. signalgrass ([3]; Rate 500 g/ha, Preemergence): 10 | Plant response rating, Cocklebur [4, 15]: 0 | Cocklebur plant response rating ([4]; Rate 62 g/ha, Postemergence): 9 | Cocklebur plant response rating ([4]; Rate 125 g/ha, Postemergence): 9 | Plant response rating, Cocklebur ([4]; Rate 125 g/ha, Preemergence): 1 | Plant response rating, Cocklebur ([4]; Rate 250 g/ha, Postemergence): 9 | Plant response rating, Cocklebur ([4]; Rate 250 g/ha, Preemergence): 7 | Plant response rating, Cocklebur ([4]; Rate 500 g/ha, Postemergence): 8 | Plant response rating, Corn [5, 15]: 1 | Corn plant response rating ([5]; Rate 62 g/ha, Postemergence): 2 | Corn plant response rating ([5]; Rate 125 g/ha, Postemergence): 3 | Plant response rating, Corn ([5]; Rate 125 g/ha, Preemergence): 1 | Plant response rating, Corn ([5]; Rate 250 g/ha, Postemergence): 3 | Plant response rating, Corn ([5]; Rate 250 g/ha, Preemergence): 2 | Plant response rating, Corn ([5]; Rate 500 g/ha, Postemergence): 3 | Plant response rating, Corn ([5]; Rate 500 g/ha, Preemergence): 2 | Plant response rating, Crabgrass [6, 15]: 10 | Crabgrass plant response rating ([6]; Rate 62 g/ha, Postemergence): 7 | Crabgrass plant response rating ([6]; Rate 125 g/ha, Postemergence): 9 | Plant response rating, Crabgrass ([6]; Rate 125 g/ha, Preemergence): 10 | Plant response rating, Crabgrass ([6]; Rate 250 g/ha, Postemergence): 9 | Plant response rating, Crabgrass ([6]; Rate 250 g/ha, Preemergence): 10 | Plant response rating, Crabgrass ([6]; Rate 500 g/ha, Postemergence): 9 | Plant response rating, Crabgrass ([6]; Rate 500 g/ha, Preemergence): 10 | Plant response rating, Giant foxtail [7, 15]: 10 | Giant foxtail plant response rating ([7]; Rate 62 g/ha, Postemergence): 6 | Giant foxtail plant response rating ([7]; Rate 125 g/ha, Postemergence): 8 | Plant response rating, Giant foxtail ([7]; Rate 125 g/ha, Preemergence): 10 | Plant response rating, Giant foxtail ([7]; Rate 250 g/ha, Postemergence): 9 | Plant response rating, Giant foxtail ([7]; Rate 250 g/ha, Preemergence): 10 | Plant response rating, Giant foxtail ([7]; Rate 500 g/ha, Postemergence): 9 | Plant response rating, Giant foxtail ([7]; Rate 500 g/ha, Preemergence): 10 | Plant response rating, Morningglory [8, 15]: 3 | Morningglory plant response rating ([8]; Rate 62 g/ha, Postemergence): 9 | Morningglory plant response rating ([8]; Rate 125 g/ha, Postemergence): 9 | Plant response rating, Morningglory ([8]; Rate 125 g/ha, Preemergence): 9 | Plant response rating, Morningglory ([8]; Rate 250 g/ha, Postemergence): 9 | Plant response rating, Morningglory ([8]; Rate 250 g/ha, Preemergence): 9 | Plant response rating, Morningglory ([8]; Rate 500 g/ha, Postemergence): 10 | Plant response rating, Morningglory ([8]; Rate 500 g/ha, Preemergence): 10 | Plant response rating, Redroot pigweed [9, 15]: 9 | Redroot pigweed plant response rating ([9]; Rate 62 g/ha, Postemergence): 9 | Redroot pigweed plant response rating ([9]; Rate 125 g/ha, Postemergence): 9 | Plant response rating, Redroot pigweed ([9]; Rate 125 g/ha, Preemergence): 10 | Plant response rating, Redroot pigweed ([9]; Rate 250 g/ha, Postemergence): 10 | Plant response rating, Redroot pigweed ([9]; Rate 250 g/ha, Preemergence): 10 | Plant response rating, Redroot pigweed ([9]; Rate 500 g/ha, Postemergence): 10 | Plant response rating, Redroot pigweed ([9]; Rate 500 g/ha, Preemergence): 10 | Plant response rating, Nutsedge [10, 15]: 0 | Nutsedge plant response rating ([10]; Rate 62 g/ha, Postemergence): 0 | Nutsedge plant response rating ([10]; Rate 125 g/ha, Postemergence): 0 | Plant response rating, Nutsedge ([10]; Rate 125 g/ha, Preemergence): 0 | Plant response rating, Nutsedge ([10]; Rate 250 g/ha, Postemergence): 2 | Plant response rating, Nutsedge ([10]; Rate 250 g/ha, Preemergence): 0 | Plant response rating, Nutsedge ([10]; Rate 500 g/ha, Preemergence): 0 | Plant response rating, Sugarbeets [11, 15]: 9 | Sugarbeets plant response rating ([11]; Rate 62 g/ha, Postemergence): 10 | Sugarbeets plant response rating ([11]; Rate 125 g/ha, Postemergence): 10 | Plant response rating, Sugarbeets ([11]; Rate 125 g/ha, Preemergence): 9 | Plant response rating, Sugarbeets ([11]; Rate 250 g/ha, Postemergence): 9 | Plant response rating, Sugarbeets ([11]; Rate 250 g/ha, Preemergence): 10 | Plant response rating, Sugarbeets ([11]; Rate 500 g/ha, Postemergence): 9 | Plant response rating, Sugarbeets ([11]; Rate 500 g/ha, Preemergence): 10 | Plant response rating, Velvetleaf [12, 15]: 2 | Velvetleaf plant response rating ([12]; Rate 62 g/ha, Postemergence): 9 | Velvetleaf plant response rating ([12]; Rate 125 g/ha, Postemergence): 9 | Plant response rating, Velvetleaf ([12]; Rate 125 g/ha, Preemergence): 4 | Plant response rating, Velvetleaf ([12]; Rate 250 g/ha, Postemergence): 9 | Plant response rating, Velvetleaf ([12]; Rate 250 g/ha, Preemergence): 7 | Plant response rating, Velvetleaf ([12]; Rate 500 g/ha, Postemergence): 10 | Plant response rating, Velvetleaf ([12]; Rate 500 g/ha, Preemergence): 8 | Plant response rating, Wheat [13, 15]: 2 | Wheat plant response rating ([13]; Rate 62 g/ha, Postemergence): 4 | Wheat plant response rating ([13]; Rate 125 g/ha, Postemergence): 4 | Plant response rating, Wheat ([13]; Rate 125 g/ha, Preemergence): 4 | Plant response rating, Wheat ([13]; Rate 250 g/ha, Postemergence): 5 | Plant response rating, Wheat ([13]; Rate 250 g/ha, Preemergence): 7 | Plant response rating, Wheat ([13]; Rate 500 g/ha, Postemergence): 6 | Plant response rating, Wheat ([13]; Rate 500 g/ha, Preemergence): 9 | Plant response rating, Wild oats [14, 15]: 7 | Wild oats plant response rating ([14]; Rate 62 g/ha, Postemergence): 6 | Wild oats plant response rating ([14]; Rate 125 g/ha, Postemergence): 7 | Plant response rating, Wild oats ([14]; Rate 125 g/ha, Preemergence): 9 | Plant response rating, Wild oats ([14]; Rate 250 g/ha, Postemergence): 9 | Plant response rating, Wild oats ([14]; Rate 250 g/ha, Preemergence): 10 | Plant response rating, Wild oats ([14]; Rate 500 g/ha, Postemergence): 9 | Plant response rating, Wild oats ([14]; Rate 500 g/ha, Preemergence): 10
